Source: patent publication EP1247803A2, “Indolinone compounds suitable for modulation of protein kinases” (Sugen, Inc., priority 1996, dated 1998)

Each compound was assayed against T1, EGFR (Homo sapiens, UniProt P00533) (assay: EGFR ELISA assay (in vitro kinase activity, EGFR captured from A431 cell lysate)).
T1 construct: Add 7 ug A431 cell lysate per well (EGFR source); endogenous in cells; host or cells: A431
Type: biochemical
Parameters: concentration or dose not given beside the values
Outline: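 EGFR from A431 lysate was captured on plates coated with anti-EGFR antibody. Compounds were added 30 min before a 5 min phosphorylation with 3 µM ATP/5 mM MnCl2, which was stopped with 20 mM EDTA. Phosphotyrosine was detected with rabbit anti-phosphotyrosine, then a peroxidase-conjugated secondary and ABTS/H2O2, read at 410 nm.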

T1 sequence (P00533 25-1210): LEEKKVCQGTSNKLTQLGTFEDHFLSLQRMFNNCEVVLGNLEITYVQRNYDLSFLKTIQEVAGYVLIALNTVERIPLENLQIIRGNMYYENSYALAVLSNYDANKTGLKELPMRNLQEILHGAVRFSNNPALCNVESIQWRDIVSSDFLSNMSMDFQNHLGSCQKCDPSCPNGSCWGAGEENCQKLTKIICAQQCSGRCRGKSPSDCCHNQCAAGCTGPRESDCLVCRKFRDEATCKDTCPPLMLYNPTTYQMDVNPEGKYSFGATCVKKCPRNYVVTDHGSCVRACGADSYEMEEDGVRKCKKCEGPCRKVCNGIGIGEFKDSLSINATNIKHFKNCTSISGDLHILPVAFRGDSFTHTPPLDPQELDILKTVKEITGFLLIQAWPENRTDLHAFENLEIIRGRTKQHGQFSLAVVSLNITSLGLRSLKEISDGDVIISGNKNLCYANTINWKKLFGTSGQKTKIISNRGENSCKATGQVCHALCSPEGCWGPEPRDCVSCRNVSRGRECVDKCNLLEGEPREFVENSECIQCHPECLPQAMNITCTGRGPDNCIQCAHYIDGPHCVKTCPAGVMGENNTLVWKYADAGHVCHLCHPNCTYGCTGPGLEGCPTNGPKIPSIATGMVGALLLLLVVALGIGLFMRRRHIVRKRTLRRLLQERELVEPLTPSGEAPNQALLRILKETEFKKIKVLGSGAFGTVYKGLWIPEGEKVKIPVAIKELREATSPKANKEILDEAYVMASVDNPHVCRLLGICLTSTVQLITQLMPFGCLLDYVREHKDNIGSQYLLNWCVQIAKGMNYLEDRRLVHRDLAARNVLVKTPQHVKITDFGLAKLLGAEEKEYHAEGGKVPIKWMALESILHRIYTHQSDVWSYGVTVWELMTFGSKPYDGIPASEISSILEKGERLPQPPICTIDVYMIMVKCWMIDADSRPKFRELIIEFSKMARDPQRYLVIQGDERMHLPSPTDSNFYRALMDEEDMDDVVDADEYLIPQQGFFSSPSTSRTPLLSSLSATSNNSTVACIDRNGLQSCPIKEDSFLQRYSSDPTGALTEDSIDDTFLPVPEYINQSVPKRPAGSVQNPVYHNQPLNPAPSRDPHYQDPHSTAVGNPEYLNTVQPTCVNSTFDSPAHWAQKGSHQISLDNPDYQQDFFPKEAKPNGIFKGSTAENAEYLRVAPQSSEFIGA

Compared with O=C1Nc2ccc(S(=O)(=O)N3CCOCC3)cc2C1=Cc1cc([N+](=O)[O-])ccc1O [10733/F10], COc1c(O)ccc(C=C2C(=O)Nc3ccc(S(=O)(=O)N4CCOCC4)cc32)c1[N+](=O)[O-] [10733/F11] is lower in “Biochem EGFR %Inhibition” value: 21.9% for the first, 0.6% for the second.

Going from CC(C)(C)c1cc(C=C2C(=O)Nc3ccc(CCCl)cc32)cc(I)c1OCc1ccccc1 [10733/G02] to CC(C)(C)c1cc(C=C2C(=O)Nc3ccc(CCCl)cc32)cc(C(C)(C)C)c1OCc1ccccc1 [10733/G05], the “Biochem EGFR %Inhibition” value rises from -6.2% to 1.5%.

Going from COc1c([N+](=O)[O-])cc(C=C2C(=O)Nc3ccc(CCCl)cc32)cc1C(C)(C)C [10733/G03] to COc1c(C(C)(C)C)cc(C=C2C(=O)Nc3ccc(CCCl)cc32)cc1C(C)(C)C [10733/G04], the “Biochem EGFR %Inhibition” value rises from 0.7% to 10.6%.

Compared with COc1c(C)cc(C=C2C(=O)Nc3ccc(CCCl)cc32)cc1C [10733/G06], Cc1cc(C=C2C(=O)Nc3ccc(CCCl)cc32)cc(C)c1OCc1ccccc1 [10733/G07] is higher in “Biochem EGFR %Inhibition” value: 5.2% for the first, 18.1% for the second.

First: COc1cc(Br)cc(C=C2C(=O)Nc3ccc(CCCl)cc32)c1O [10733/G08]
Second: O=C1Nc2ccc(CCCl)cc2C1=Cc1cc(Br)ccc1O [10733/G09]
The “Biochem EGFR %Inhibition” value of the first is higher: 44.2% for the first, 38.7% for the second.

Compared with O=C1Nc2ccc(CCCl)cc2C1=Cc1cc([N+](=O)[O-])ccc1O [10733/G10], COc1c(O)ccc(C=C2C(=O)Nc3ccc(CCCl)cc32)c1[N+](=O)[O-] [10733/G11] is lower in “Biochem EGFR %Inhibition” value: 18.2% for the first, -1.0% for the second.

Compared with CCOc1cccc(C=C2C(=O)Nc3c(Br)cc(Br)cc32)c1O [10734/A02], O=C1Nc2c(Br)cc(Br)cc2C1=Cc1cccc(F)c1O [10734/A08] is higher in “Biochem EGFR %Inhibition” value: 0.0% for the first, 6.8% for the second.

First: O=C1Nc2c(Br)cc(Br)cc2C1=Cc1cc(Cl)cc(Cl)c1O [10734/A03]
Second: O=C1Nc2c(Br)cc(Br)cc2C1=Cc1cc(Cl)ccc1O [10734/A04]
The “Biochem EGFR %Inhibition” value of the first is higher: 18.5% for the first, 11.4% for the second.

Going from CCN(CC)c1ccc(C=C2C(=O)Nc3c(Br)cc(Br)cc32)c(O)c1 [10734/A05] to CCN(CC)c1ccc(C=C2C(=O)Nc3ccc(Br)c(C)c32)c(O)c1 [10734/C05], the “Biochem EGFR %Inhibition” value falls from 22.6% to 9.3%.

First: O=C1Nc2c(Br)cc(Br)cc2C1=Cc1ccc([N+](=O)[O-])cc1 [10734/A06]
Second: CC(C)(C)c1ccc(C=C2C(=O)Nc3c(Br)cc(Br)cc32)cc1 [10734/A10]
The “Biochem EGFR %Inhibition” value of the first is lower: -6.4% for the first, 27.8% for the second.

First: O=C1Nc2c(Br)cc(Br)cc2C1=Cc1cc(Br)cc(Br)c1O [10734/A07]
Second: O=C1Nc2c(Br)cc(Br)cc2C1=Cc1ccc(O)c(Br)c1 [10734/A09]
The “Biochem EGFR %Inhibition” value of the first is lower: 15.2% for the first, 27.3% for the second.

First: O=C1Nc2c(Br)cc(Br)cc2C1=Cc1ccc(Br)s1 [10734/A11]
Second: Cc1c(Br)ccc2c1C(=Cc1ccc(Br)s1)C(=O)N2 [10734/C11]
The “Biochem EGFR %Inhibition” value of the first is lower: 12.5% for the first, 18.0% for the second.

First: CCOc1cccc(C=C2C(=O)Nc3ccc(I)cc32)c1O [10734/B02]
Second: O=C1Nc2ccc(I)cc2C1=Cc1cccc(F)c1O [10734/B08]
The “Biochem EGFR %Inhibition” value of the first is lower: -8.9% for the first, 19.3% for the second.

First: O=C1Nc2ccc(I)cc2C1=Cc1cc(Cl)cc(Cl)c1O [10734/B03]
Second: CNS(=O)(=O)c1ccc2c(c1)C(=Cc1cc(Cl)cc(Cl)c1O)C(=O)N2 [10734/D03]
The “Biochem EGFR %Inhibition” value of the first is higher: 45.1% for the first, 19.6% for the second.

First: O=C1Nc2ccc(I)cc2C1=Cc1cc(Cl)ccc1O [10734/B04]
Second: O=C1Nc2ccc(I)cc2C1=Cc1ccc(O)c(Br)c1 [10734/B09]
The “Biochem EGFR %Inhibition” value of the first is higher: 38.7% for the first, 34.9% for the second.

Going from CCN(CC)c1ccc(C=C2C(=O)Nc3ccc(I)cc32)c(O)c1 [10734/B05] to CCN(CC)c1ccc(C=C2C(=O)Nc3ccc(S(=O)(=O)NC)cc32)c(O)c1 [10734/D05], the “Biochem EGFR %Inhibition” value falls from 17.8% to -9.6%.

Going from O=C1Nc2ccc(I)cc2C1=Cc1ccc([N+](=O)[O-])cc1 [10734/B06] to CNS(=O)(=O)c1ccc2c(c1)C(=Cc1ccc([N+](=O)[O-])cc1)C(=O)N2 [10734/D06], the “Biochem EGFR %Inhibition” value falls from 54.0% to 1.3%.

Going from O=C1Nc2ccc(I)cc2C1=Cc1cc(Br)cc(Br)c1O [10734/B07] to CNS(=O)(=O)c1ccc2c(c1)C(=Cc1cc(Br)cc(Br)c1O)C(=O)N2 [10734/D07], the “Biochem EGFR %Inhibition” value falls from 65.5% to 51.1%.

First: CC(C)(C)c1ccc(C=C2C(=O)Nc3ccc(I)cc32)cc1 [10734/B10]
Second: CNS(=O)(=O)c1ccc2c(c1)C(=Cc1ccc(C(C)(C)C)cc1)C(=O)N2 [10734/D10]
The “Biochem EGFR %Inhibition” value of the first is higher: 60.7% for the first, -4.4% for the second.

First: O=C1Nc2ccc(I)cc2C1=Cc1ccc(Br)s1 [10734/B11]
Second: CNS(=O)(=O)c1ccc2c(c1)C(=Cc1ccc(Br)s1)C(=O)N2 [10734/D11]
The “Biochem EGFR %Inhibition” value of the first is higher: 50.9% for the first, 14.6% for the second.

Going from CCOc1cccc(C=C2C(=O)Nc3ccc(Br)c(C)c32)c1O [10734/C02] to Cc1c(Br)ccc2c1C(=Cc1cccc(F)c1O)C(=O)N2 [10734/C08], the “Biochem EGFR %Inhibition” value rises from -6.7% to 35.1%.

First: Cc1c(Br)ccc2c1C(=Cc1cc(Cl)cc(Cl)c1O)C(=O)N2 [10734/C03]
Second: Cc1c(Br)ccc2c1C(=Cc1cc(Cl)ccc1O)C(=O)N2 [10734/C04]
The “Biochem EGFR %Inhibition” value of the first is higher: 48.6% for the first, 38.1% for the second.

Going from Cc1c(Br)ccc2c1C(=Cc1ccc([N+](=O)[O-])cc1)C(=O)N2 [10734/C06] to Cc1c(Br)ccc2c1C(=Cc1ccc(C(C)(C)C)cc1)C(=O)N2 [10734/C10], the “Biochem EGFR %Inhibition” value rises from 18.4% to 24.4%.

First: Cc1c(Br)ccc2c1C(=Cc1cc(Br)cc(Br)c1O)C(=O)N2 [10734/C07]
Second: Cc1c(Br)ccc2c1C(=Cc1ccc(O)c(Br)c1)C(=O)N2 [10734/C09]
The “Biochem EGFR %Inhibition” value of the first is higher: 41.0% for the first, 36.2% for the second.

First: CCOc1cccc(C=C2C(=O)Nc3ccc(S(=O)(=O)NC)cc32)c1O [10734/D02]
Second: CNS(=O)(=O)c1ccc2c(c1)C(=Cc1cccc(F)c1O)C(=O)N2 [10734/D08]
The “Biochem EGFR %Inhibition” value of the first is higher: 5.2% for the first, -13.7% for the second.

Compared with CNS(=O)(=O)c1ccc2c(c1)C(=Cc1cc(Cl)ccc1O)C(=O)N2 [10734/D04], CNS(=O)(=O)c1ccc2c(c1)C(=Cc1ccc(O)c(Br)c1)C(=O)N2 [10734/D09] is higher in “Biochem EGFR %Inhibition” value: -10.7% for the first, 21.0% for the second.

Compared with CCOc1cccc(C=C2C(=O)Nc3ccc(S(=O)(=O)Nc4ccc(C(F)(F)F)cc4)cc32)c1O [10734/E02], O=C1Nc2ccc(S(=O)(=O)Nc3ccc(C(F)(F)F)cc3)cc2C1=Cc1cc(Cl)cc(Cl)c1O [10734/E03] is higher in “Biochem EGFR %Inhibition” value: -10.8% for the first, 55.0% for the second.
